Reference: US12478661B2, “Lung cell treatments to prevent or treat disease” (THE JOHNS HOPKINS UNIVERSITY, priority 2017, dated 2025)

Legend:
[1] = tested on: primary ciliated normal human bronchial epithelial cells (NHBEs); experiment: Airway surface liquid (ASL) thickness in primary NHBEs at air liquid interface; assay type: cell-based; settings: CATR 20 μM; for effect on the ANT2 overexpression increase in ASL: BKA 4 μM apical 18 hours, apyrase 10 units 4 hours
Method: (§1) The apical surface of cells was washed once with PBS 18 hours prior to the addition of Texas Red. ASL was visualized by adding 10-kD Texas Red-dextran (17.5 μl per 12-well insert, ThermoFisher) to the apical surface of NHBE or HBEKT cultures at air liquid interface, as previously described. ASL was imaged 4 hours later by acquiring 4×4 tiled z-stacks by live-cell confocal microscopy with a heat and CO2 controlled stage (Zeiss 780 with a 40× water objective). Fluorinert ([…] was added to the top of the insert cultures immediately prior to imaging to prevent evaporation. Z-stacks were analyzed by segmentation and pixel thickness analysis. For experiments with ANT inhibitors, CATR (20 μM, Sigma) and BKA (4 μM, Sigma) in 20 μl PBS (or control PBS alone) were added to the apical surface of ALI cultures (NHBEs or HBEKTs) 18 hours prior to ASL assessment. Texas Red was added 4 hours prior to ASL testing. For apyrase treatment, 10 units of apyrase (Sigma) was added with Texas Red-dextran as described above 4 hours prior to ASL assessment.
Thickness across the sample was computed using a custom script, written in Matlab (Mathworks, Natick, MA). Briefly, for each value x in the three-dimensional images, Im(x,y, z), the resultant (y, z) slice was segmented using adaptive thresholding (Matlab command: imbinarize), followed by operations to fill holes (imfill), morphological opening (imopen) and filtering of small regions (bwareaopen) (FIG. 13a). The threshold level was adjusted after preprocessing the complete image and the process repeated. For each y in this binary image, the number of segmented pixels was counted, giving a measure of the thickness in the (x, y) location; see FIG. 13. This gave a histogram of depths over the image (FIG. 13c). An average depth was computed for all pixels in which a non-zero depth was detected (to avoid edge effects). The process was repeated by fixing y and working with the (x, z) slice. The differences between the averages were typically less than 1-2%. Thickness in pixels was converted to μm using a slice thickness of 0.46 μm, the step size used to collect the z-stack.

HBEKT cells [2] = experiment: Airway surface liquid (ASL) height in HBEKTs at air liquid interface; assay type: cell-based, human; settings: CATR 20 μM, BKA 4 μM
Method: as §1
Thickness across the sample was computed using a custom script, written in Matlab (Mathworks, Natick, MA). […] For each y in this binary image, the number of segmented pixels was counted, giving a measure of the thickness in the (x, y) location; see FIG. 13. […]

HBEKT cells [3] = experiment: Seahorse Mitostress cellular metabolism (OCR, ATP production, proton leak); assay type: cell-based, human; settings: 30 min after injection, CATR 20 μM, BKA 4 μM
Method: For metabolic analysis, HBEKT cells were cultured in 96-well Seahorse assay plates (Agilent) and infected with adenovirus constructs for ANT1, ANT2 and control for target overexpression at 48 hours (MOI 40, Vector BioLabs) or siRNA target suppression using siRNA and Lipofectamine as described above for ANT1, ANT2 or non-targeting control siRNA at 72 hours. After viral infection or siRNA transfection, cells were treated for 4 hours with KSFM media alone or 20% CSE. Cells were washed once in KSFM, followed by washes in buffered Seahorse Assay medium (pH 7.4) and subsequent metabolic testing according to the manufacturer's protocol (Agilent Seahorse XF96). Oligomycin (2 μM, ATPase inhibitor), FCCP (0.25 μM mitochondrial uncoupler) and a cocktail of rotenone (0.5 μM, ETC complex I inhibitor) and antimycin A (0.5 μM, ETC complex III inhibitor) were sequentially injected after three basal rates were measured. Sample measurements were normalized to total cellular mass determined by CyQuant Assay according to the manufacturer protocol (Molecular Probes, ThermoFisher). For experiments including ANT specific inhibitors, carboxyatractyloside (CATR, 20-μM, Sigma), Bongkrekic acid (BKA, 4-μM, Sigma) or vehicle control were injected into wells after basal OCR measurements were taken followed by repeat OCR measurements 30 minutes after compound injection. […]

Row | Compound | ASL in control virus-treated cells [1] | effect on the ANT2 overexpression increase in ASL [1] | effect on the ANT2 enhancement of ASL height (HBEKT cells [2]) | ATP production after ANT inhibitor (HBEKT cells [3]) | basal oxidative respiration after ANT inhibitor (HBEKT cells [3])
1 | C=C1[C@@H]2CC[C@H]3[C@]4(C)C[C@H](O[C@@H]5O[C@H](CO)[C@@H](OS(=O)(=O)O)[C@H](OS(=O)(=O)O)[C@H]5OC(=O)CC(C)C)CC(C(=O)O)(C(=O)O)[C@H]4CC[C@]3(C2)[C@H]1O [carboxyatractyloside] | trend towards decreasing ASL | abrogated | abolished |  | 
2 | apyrase |  | reversed |  |  | 
3 | CO[C@H](C/C=C\C=C\CC/C=C/C[C@H](C)/C=C/C(=C\C(=O)O)CC(=O)O)/C(C)=C\C=C(/C)C(=O)O [Bongkrekic acid] |  | abrogated | abolished | halted | halted
